{"source": "ChEMBL document CHEMBL3232938", "about": "“Design, synthesis, and biological evaluation of dihydroartemisinin-fluoroquinolone conjugates as a novel type of potential antitubercular agents” (2014)", "type_in_all_cases": "functional", "key": {"Salmonella [1]": {"system": "Salmonella", "experiment": "Antibacterial activity against Salmonella assessed as zone of inhibition at 2 ug/ml", "conditions": "read-out: DIZ"}, "[2]": {"system": "Mycobacterium tuberculosis", "experiment": "Antibacterial activity against Mycobacterium tuberculosis H37Rv ATCC 27294 assessed as growth inhibition after 7 days by microtiter plate assay", "conditions": "H37Rv ATCC 27294, 168 h"}, "Staphylococcus aureus [3]": {"system": "Staphylococcus aureus", "experiment": "Antibacterial activity against Staphylococcus aureus assessed as growth inhibition after 7 days by microtiter plate assay", "conditions": "168 h"}, "Escherichia coli [4]": {"system": "Escherichia coli", "experiment": "Antibacterial activity against duck Escherichia coli assessed as zone of inhibition at 2 ug/ml", "conditions": "read-out: DIZ"}, "Staphylococcus aureus [5]": {"system": "Staphylococcus aureus", "experiment": "Antibacterial activity against Staphylococcus aureus assessed as zone of inhibition at 2 ug/ml", "conditions": "read-out: DIZ"}, "Pseudomonas aeruginosa [6]": {"system": "Pseudomonas aeruginosa", "experiment": "Antibacterial activity against Pseudomonas aeruginosa assessed as zone of inhibition at 2 ug/ml", "conditions": "read-out: DIZ"}, "[7]": {"system": "Mycobacterium tuberculosis", "experiment": "Antibacterial activity against 0.5 ug/ml Mycobacterium tuberculosis H37Rv ATCC 27294 assessed as growth inhibition after 7 days by microtiter plate assay", "conditions": "H37Rv ATCC 27294, 168 h"}, "[8]": {"system": "Mycobacterium tuberculosis", "experiment": "Antibacterial activity against 1 ug/ml Mycobacterium tuberculosis H37Rv ATCC 27294 assessed as growth inhibition after 7 days by microtiter plate assay", "conditions": "H37Rv ATCC 27294, 168 h"}, "Pseudomonas aeruginosa [9]": {"system": "Pseudomonas aeruginosa", "experiment": "Antibacterial activity against Pseudomonas aeruginosa assessed as growth inhibition after 7 days by microtiter plate assay", "conditions": "168 h"}, "Salmonella [10]": {"system": "Salmonella", "experiment": "Antibacterial activity against Salmonella assessed as growth inhibition after 7 days by microtiter plate assay", "conditions": "168 h"}, "Escherichia coli [11]": {"system": "Escherichia coli", "experiment": "Antibacterial activity against Escherichia coli assessed as zone of inhibition at 2 ug/ml", "conditions": "read-out: DIZ"}, "Escherichia coli [12]": {"system": "Escherichia coli", "experiment": "Antibacterial activity against Escherichia coli assessed as growth inhibition after 7 days by microtiter plate assay", "conditions": "168 h"}, "Escherichia coli [13]": {"system": "Escherichia coli", "experiment": "Antibacterial activity against duck Escherichia coli assessed as growth inhibition after 7 days by microtiter plate assay", "conditions": "168 h"}}}
{"compound": "O=C(O)c1cn(C2CC2)c2cc(N3CCNCC3)c(F)cc2c1=O", "note": "[CIPROFLOXACIN]", "values": [{"measurement": "zone of inhibition at 2 µg/mL", "setting": "Salmonella [1]", "value": 24, "unit": "mm"}, {"measurement": "MIC", "setting": "[2]", "value": 0.75, "unit": "µM"}, {"measurement": "MIC", "setting": "Staphylococcus aureus [3]", "value": 8, "unit": "µg/mL"}, {"measurement": "zone of inhibition at 2 µg/mL", "setting": "Escherichia coli [4]", "value": 42, "unit": "mm"}, {"measurement": "zone of inhibition at 2 µg/mL", "setting": "Staphylococcus aureus [5]", "value": 9, "unit": "mm"}, {"measurement": "zone of inhibition at 2 µg/mL", "setting": "Pseudomonas aeruginosa [6]", "value": 18, "unit": "mm"}]}
{"compound": "CC1COc2c(N3CCN(C)CC3)c(F)cc3c(=O)c(C(=O)O)cn1c23", "note": "(stereo not drawn) [OFLOXACIN]", "values": [{"measurement": "MIC", "setting": "[7]", "value": 0.69, "unit": "µM"}, {"measurement": "MIC", "setting": "[8]", "value": 0.69, "unit": "µM"}]}
{"compound": "C[C@H]1[C@@H](OCCN2CCN(c3cc4c(cc3F)c(=O)c(C(=O)O)cn4C3CC3)CC2)O[C@@H]2O[C@@]3(C)CC[C@H]4[C@H](C)CC[C@@H]1[C@@]24OO3", "values": [{"measurement": "MIC", "setting": "Pseudomonas aeruginosa [9]", "value": 16, "unit": "µg/mL"}, {"measurement": "MIC", "setting": "[7]", "value": "> 6.23", "unit": "µM"}, {"measurement": "MIC", "setting": "Salmonella [10]", "value": 16, "unit": "µg/mL"}, {"measurement": "zone of inhibition at 2 µg/mL", "setting": "Escherichia coli [11]", "value": "< 5", "unit": "mm"}, {"measurement": "MIC", "setting": "Escherichia coli [12]", "value": 16, "unit": "µg/mL"}, {"measurement": "MIC", "setting": "[8]", "value": "> 6.23", "unit": "µM"}, {"measurement": "zone of inhibition at 2 µg/mL", "setting": "Salmonella [1]", "value": "< 5", "unit": "mm"}, {"measurement": "MIC", "setting": "Escherichia coli [13]", "value": 8, "unit": "µg/mL"}, {"measurement": "MIC", "setting": "Staphylococcus aureus [3]", "value": 8, "unit": "µg/mL"}, {"measurement": "zone of inhibition at 2 µg/mL", "setting": "Escherichia coli [4]", "value": "< 5", "unit": "mm"}, {"measurement": "zone of inhibition at 2 µg/mL", "setting": "Staphylococcus aureus [5]", "value": "< 5", "unit": "mm"}, {"measurement": "zone of inhibition at 2 µg/mL", "setting": "Pseudomonas aeruginosa [6]", "value": "< 5", "unit": "mm"}]}
{"compound": "CCn1cc(C(=O)O)c(=O)c2cc(F)c(N3CCN(CCCO[C@H]4O[C@@H]5O[C@@]6(C)CC[C@H]7[C@H](C)CC[C@@H]([C@H]4C)[C@@]57OO6)CC3)cc21", "values": [{"measurement": "MIC", "setting": "Pseudomonas aeruginosa [9]", "value": 16, "unit": "µg/mL"}, {"measurement": "MIC", "setting": "[7]", "value": 6.21, "unit": "µM"}, {"measurement": "MIC", "setting": "Salmonella [10]", "value": 16, "unit": "µg/mL"}, {"measurement": "zone of inhibition at 2 µg/mL", "setting": "Escherichia coli [11]", "value": "< 5", "unit": "mm"}, {"measurement": "MIC", "setting": "Escherichia coli [12]", "value": 16, "unit": "µg/mL"}, {"measurement": "MIC", "setting": "[8]", "value": 6.21, "unit": "µM"}, {"measurement": "zone of inhibition at 2 µg/mL", "setting": "Salmonella [1]", "value": "< 5", "unit": "mm"}, {"measurement": "MIC", "setting": "Escherichia coli [13]", "value": 8, "unit": "µg/mL"}, {"measurement": "MIC", "setting": "Staphylococcus aureus [3]", "value": 8, "unit": "µg/mL"}, {"measurement": "zone of inhibition at 2 µg/mL", "setting": "Escherichia coli [4]", "value": "< 5", "unit": "mm"}, {"measurement": "zone of inhibition at 2 µg/mL", "setting": "Staphylococcus aureus [5]", "value": "< 5", "unit": "mm"}, {"measurement": "zone of inhibition at 2 µg/mL", "setting": "Pseudomonas aeruginosa [6]", "value": "< 5", "unit": "mm"}]}
{"compound": "C[C@H]1[C@@H](OC(=O)CCC(=O)N2CCN(c3cc4c(cc3F)c(=O)c(C(=O)O)cn4-c3ccc(F)cc3)CC2)O[C@@H]2O[C@@]3(C)CC[C@H]4[C@H](C)CC[C@@H]1[C@@]24OO3", "values": [{"measurement": "MIC", "setting": "Pseudomonas aeruginosa [9]", "value": 16, "unit": "µg/mL"}, {"measurement": "MIC", "setting": "[7]", "value": "> 5.32", "unit": "µM"}, {"measurement": "MIC", "setting": "Salmonella [10]", "value": 16, "unit": "µg/mL"}, {"measurement": "zone of inhibition at 2 µg/mL", "setting": "Escherichia coli [11]", "value": "< 5", "unit": "mm"}, {"measurement": "MIC", "setting": "Escherichia coli [12]", "value": 16, "unit": "µg/mL"}, {"measurement": "MIC", "setting": "[8]", "value": "> 5.32", "unit": "µM"}, {"measurement": "zone of inhibition at 2 µg/mL", "setting": "Salmonella [1]", "value": "< 5", "unit": "mm"}, {"measurement": "MIC", "setting": "Escherichia coli [13]", "value": 8, "unit": "µg/mL"}, {"measurement": "MIC", "setting": "Staphylococcus aureus [3]", "value": 8, "unit": "µg/mL"}, {"measurement": "zone of inhibition at 2 µg/mL", "setting": "Escherichia coli [4]", "value": "< 5", "unit": "mm"}, {"measurement": "zone of inhibition at 2 µg/mL", "setting": "Staphylococcus aureus [5]", "value": "< 5", "unit": "mm"}, {"measurement": "zone of inhibition at 2 µg/mL", "setting": "Pseudomonas aeruginosa [6]", "value": "< 5", "unit": "mm"}]}
{"compound": "C[C@H]1[C@@H](OCCN2CCN(c3cc4c(cc3F)c(=O)c(C(=O)O)cn4-c3ccc(F)cc3)CC2)O[C@@H]2O[C@@]3(C)CC[C@H]4[C@H](C)CC[C@@H]1[C@@]24OO3", "values": [{"measurement": "MIC", "setting": "Pseudomonas aeruginosa [9]", "value": 16, "unit": "µg/mL"}, {"measurement": "MIC", "setting": "[7]", "value": "> 2.87", "unit": "µM"}, {"measurement": "MIC", "setting": "Salmonella [10]", "value": 16, "unit": "µg/mL"}, {"measurement": "zone of inhibition at 2 µg/mL", "setting": "Escherichia coli [11]", "value": "< 5", "unit": "mm"}, {"measurement": "MIC", "setting": "Escherichia coli [12]", "value": 16, "unit": "µg/mL"}, {"measurement": "MIC", "setting": "[8]", "value": "> 2.87", "unit": "µM"}, {"measurement": "zone of inhibition at 2 µg/mL", "setting": "Salmonella [1]", "value": "< 5", "unit": "mm"}, {"measurement": "MIC", "setting": "Escherichia coli [13]", "value": 8, "unit": "µg/mL"}, {"measurement": "MIC", "setting": "Staphylococcus aureus [3]", "value": 16, "unit": "µg/mL"}, {"measurement": "zone of inhibition at 2 µg/mL", "setting": "Escherichia coli [4]", "value": "< 5", "unit": "mm"}, {"measurement": "zone of inhibition at 2 µg/mL", "setting": "Staphylococcus aureus [5]", "value": "< 5", "unit": "mm"}, {"measurement": "zone of inhibition at 2 µg/mL", "setting": "Pseudomonas aeruginosa [6]", "value": "< 5", "unit": "mm"}]}
{"compound": "CCn1cc(C(=O)O)c(=O)c2cc(F)c(N3CCN(CCO[C@H]4O[C@@H]5O[C@@]6(C)CC[C@H]7[C@H](C)CC[C@@H]([C@H]4C)[C@@]57OO6)CC3)cc21", "values": [{"measurement": "MIC", "setting": "Pseudomonas aeruginosa [9]", "value": 16, "unit": "µg/mL"}, {"measurement": "MIC", "setting": "[7]", "value": "> 3.18", "unit": "µM"}, {"measurement": "MIC", "setting": "Salmonella [10]", "value": 16, "unit": "µg/mL"}, {"measurement": "zone of inhibition at 2 µg/mL", "setting": "Escherichia coli [11]", "value": "< 5", "unit": "mm"}, {"measurement": "MIC", "setting": "Escherichia coli [12]", "value": 16, "unit": "µg/mL"}, {"measurement": "MIC", "setting": "[8]", "value": "> 3.18", "unit": "µM"}, {"measurement": "zone of inhibition at 2 µg/mL", "setting": "Salmonella [1]", "value": "< 5", "unit": "mm"}, {"measurement": "MIC", "setting": "Escherichia coli [13]", "value": 16, "unit": "µg/mL"}, {"measurement": "MIC", "setting": "Staphylococcus aureus [3]", "value": 8, "unit": "µg/mL"}, {"measurement": "zone of inhibition at 2 µg/mL", "setting": "Escherichia coli [4]", "value": "< 5", "unit": "mm"}, {"measurement": "zone of inhibition at 2 µg/mL", "setting": "Staphylococcus aureus [5]", "value": "< 5", "unit": "mm"}, {"measurement": "zone of inhibition at 2 µg/mL", "setting": "Pseudomonas aeruginosa [6]", "value": "< 5", "unit": "mm"}]}
